From patent publication US8192962B2, “Processes for detecting toxic substances” (Daikin Industries, Ltd., priority 2001, dated 2012)

System: Unknown protein yeast genes
Experiment: DNA chip mRNA expression in yeast, unknown protein yeast genes (Table 1)
Type: cell-based, Saccharomyces cerevisiae S288C
How it was run: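 Values are treated/untreated fluorescence ratios from a whole-genome yeast DNA chip hybridized over 12 hours at 65° C with Cy3- or Cy5-labelled cDNA from poly(A) mRNA. Log-phase S288C yeast in YPD at 25° C had received a single toxic chemical for two hours, dosed to slow growth without killing.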

S=C([S-])NCCNC(=S)[S-].[Zn+2] [(11), zinc N,N′-ethylenebis(dithiocarbamate)]
The level of expressed mRNA in the presence of chemical substance/The level of expressed mRNA in the absence of chemical substance (yeast gene YKL153W, incubated two hours with chemical substance): 2.1
The level of expressed mRNA in the presence of chemical substance/The level of expressed mRNA in the absence of chemical substance (yeast gene YKL195W, incubated two hours with chemical substance): 1.0
The level of expressed mRNA in the presence of chemical substance/The level of expressed mRNA in the absence of chemical substance (yeast gene YKR033C): 0.3
The level of expressed mRNA in the presence of chemical substance/The level of expressed mRNA in the absence of chemical substance (yeast gene YKR091W, incubated two hours with chemical substance): 1.1
The level of expressed mRNA in the presence of chemical substance/The level of expressed mRNA in the absence of chemical substance (yeast gene YLR054C, incubated two hours with chemical substance): 0.7
The level of expressed mRNA in the presence of chemical substance/The level of expressed mRNA in the absence of chemical substance (yeast gene YLR149C, incubated two hours with chemical substance): 2.8
The level of expressed mRNA in the presence of chemical substance/The level of expressed mRNA in the absence of chemical substance (yeast gene YLR152C, incubated two hours with chemical substance): 3.6
The level of expressed mRNA in the presence of chemical substance/The level of expressed mRNA in the absence of chemical substance (yeast gene YLR194C, incubated two hours with chemical substance): 1.4
The level of expressed mRNA in the presence of chemical substance/The level of expressed mRNA in the absence of chemical substance (yeast gene YLR324W, incubated two hours with chemical substance): 0.9
The level of expressed mRNA in the presence of chemical substance/The level of expressed mRNA in the absence of chemical substance (yeast gene YLR350W, incubated two hours with chemical substance): 0.9
The level of expressed mRNA in the presence of chemical substance/The level of expressed mRNA in the absence of chemical substance (yeast gene YLR387C, incubated two hours with chemical substance): 0.9
The level of expressed mRNA in the presence of chemical substance/The level of expressed mRNA in the absence of chemical substance (yeast gene YLR460C): 14.3
The level of expressed mRNA in the presence of chemical substance/The level of expressed mRNA in the absence of chemical substance (yeast gene YML117W, incubated two hours with chemical substance): 0.8
The level of expressed mRNA in the presence of chemical substance/The level of expressed mRNA in the absence of chemical substance (yeast gene YMR009W, incubated two hours with chemical substance): 2.1
The level of expressed mRNA in the presence of chemical substance/The level of expressed mRNA in the absence of chemical substance (yeast gene YMR067C, incubated two hours with chemical substance): 1.1
The level of expressed mRNA in the presence of chemical substance/The level of expressed mRNA in the absence of chemical substance (yeast gene YMR090W): 8.8
The level of expressed mRNA in the presence of chemical substance/The level of expressed mRNA in the absence of chemical substance (yeast gene YMR095C, incubated two hours with chemical substance): 2.1
The level of expressed mRNA in the presence of chemical substance/The level of expressed mRNA in the absence of chemical substance (yeast gene YMR097C, incubated two hours with chemical substance): 1.5
The level of expressed mRNA in the presence of chemical substance/The level of expressed mRNA in the absence of chemical substance (yeast gene YMR102C, incubated two hours with chemical substance): 1.5
The level of expressed mRNA in the presence of chemical substance/The level of expressed mRNA in the absence of chemical substance (yeast gene YMR107W, incubated two hours with chemical substance): 3.0
The level of expressed mRNA in the presence of chemical substance/The level of expressed mRNA in the absence of chemical substance (yeast gene YMR180C, incubated two hours with chemical substance): 0.7
The level of expressed mRNA in the presence of chemical substance/The level of expressed mRNA in the absence of chemical substance (yeast gene YMR184W, incubated two hours with chemical substance): 1.5
The level of expressed mRNA in the presence of chemical substance/The level of expressed mRNA in the absence of chemical substance (yeast gene YMR191W, incubated two hours with chemical substance): 2.3
The level of expressed mRNA in the presence of chemical substance/The level of expressed mRNA in the absence of chemical substance (yeast gene YMR295C, incubated two hours with chemical substance): 1.2
The level of expressed mRNA in the presence of chemical substance/The level of expressed mRNA in the absence of chemical substance (yeast gene YMR316W, incubated two hours with chemical substance): 1.5
The level of expressed mRNA in the presence of chemical substance/The level of expressed mRNA in the absence of chemical substance (yeast gene YNL044W, incubated two hours with chemical substance): 1.1
The level of expressed mRNA in the presence of chemical substance/The level of expressed mRNA in the absence of chemical substance (yeast gene YNL074C, incubated two hours with chemical substance): 1.3
The level of expressed mRNA in the presence of chemical substance/The level of expressed mRNA in the absence of chemical substance (yeast gene YNL092W, incubated two hours with chemical substance): 0.7
The level of expressed mRNA in the presence of chemical substance/The level of expressed mRNA in the absence of chemical substance (yeast gene YNL115C, incubated two hours with chemical substance): 1.1
The level of expressed mRNA in the presence of chemical substance/The level of expressed mRNA in the absence of chemical substance (yeast gene YNL156C, incubated two hours with chemical substance): 1.4
The level of expressed mRNA in the presence of chemical substance/The level of expressed mRNA in the absence of chemical substance (yeast gene YNL234W, incubated two hours with chemical substance): 1.3
The level of expressed mRNA in the presence of chemical substance/The level of expressed mRNA in the absence of chemical substance (yeast gene YNL281W, incubated two hours with chemical substance): 1.6
The level of expressed mRNA in the presence of chemical substance/The level of expressed mRNA in the absence of chemical substance (yeast gene YNL305C, incubated two hours with chemical substance): 1.8
The level of expressed mRNA in the presence of chemical substance/The level of expressed mRNA in the absence of chemical substance (yeast gene YNR068C, incubated two hours with chemical substance): 1.1
The level of expressed mRNA in the presence of chemical substance/The level of expressed mRNA in the absence of chemical substance (yeast gene YOL032W, incubated two hours with chemical substance): 1.4
The level of expressed mRNA in the presence of chemical substance/The level of expressed mRNA in the absence of chemical substance (yeast gene YOL036W, incubated two hours with chemical substance): 2.2
The level of expressed mRNA in the presence of chemical substance/The level of expressed mRNA in the absence of chemical substance (yeast gene YOL047C, incubated two hours with chemical substance): 0.9
The level of expressed mRNA in the presence of chemical substance/The level of expressed mRNA in the absence of chemical substance (yeast gene YOL071W, incubated two hours with chemical substance): 4.3
The level of expressed mRNA in the presence of chemical substance/The level of expressed mRNA in the absence of chemical substance (yeast gene YOL082W, incubated two hours with chemical substance): 1.6
The level of expressed mRNA in the presence of chemical substance/The level of expressed mRNA in the absence of chemical substance (yeast gene YOL083W, incubated two hours with chemical substance): 1.3
The level of expressed mRNA in the presence of chemical substance/The level of expressed mRNA in the absence of chemical substance (yeast gene YOL117W, incubated two hours with chemical substance): 1.0
The level of expressed mRNA in the presence of chemical substance/The level of expressed mRNA in the absence of chemical substance (yeast gene YOL131W, incubated two hours with chemical substance): 1.4
The level of expressed mRNA in the presence of chemical substance/The level of expressed mRNA in the absence of chemical substance (yeast gene YOL150C): 9.4
The level of expressed mRNA in the presence of chemical substance/The level of expressed mRNA in the absence of chemical substance (yeast gene YOL162W, incubated two hours with chemical substance): 4.3
The level of expressed mRNA in the presence of chemical substance/The level of expressed mRNA in the absence of chemical substance (yeast gene YOR019W, incubated two hours with chemical substance): 1.7
The level of expressed mRNA in the presence of chemical substance/The level of expressed mRNA in the absence of chemical substance (yeast gene YOR197W, incubated two hours with chemical substance): 1.0
The level of expressed mRNA in the presence of chemical substance/The level of expressed mRNA in the absence of chemical substance (yeast gene YPL087W, incubated two hours with chemical substance): 2.5
The level of expressed mRNA in the presence of chemical substance/The level of expressed mRNA in the absence of chemical substance (yeast gene YPL196W, incubated two hours with chemical substance): 1.7
The level of expressed mRNA in the presence of chemical substance/The level of expressed mRNA in the absence of chemical substance (yeast gene YPL206C, incubated two hours with chemical substance): 1.5
The level of expressed mRNA in the presence of chemical substance/The level of expressed mRNA in the absence of chemical substance (yeast gene YPL222W, incubated two hours with chemical substance): 1.2
The level of expressed mRNA in the presence of chemical substance/The level of expressed mRNA in the absence of chemical substance (yeast gene YPR023C, incubated two hours with chemical substance): 1.7
The level of expressed mRNA in the presence of chemical substance/The level of expressed mRNA in the absence of chemical substance (yeast gene YPR151C, incubated two hours with chemical substance): 1.4
